From patent publication US20040082605A1, “Use” (priority 2001, published 2004)

System: gastric (corpus) ulcers induced by indomethacin
Test: Indomethacin induced gastric ulcer in rats, stomach examined macroscopically
Type: in vivo
Details: male rats; for Median number of gastric (corpus) ulcers induced by indomethacin: Ulcer furrows / Median number of gastric (corpus) ulcers induced by indomethacin: Pinhead ulcers: stomach removed 5 h after indomethacin; for Median number of gastric (corpus) ulcers induced by indomethacin: Ulcer furrows: furrows >3 mm; for Median number of gastric (corpus) ulcers induced by indomethacin: Pinhead ulcers: pinhead = diameter 3 mm or less; for Effect against gastric ulcers induced by indomethacin: oral dosing 1 h before indomethacin 20 mg/kg orally, result in words
Method: Groups of […] male rats were given oral doses of vehicle, 2,3-dimethyl-8-(2-ethyl-6-methylbenzylamino)-imidazo[1,2-a]pyridine-6-carboxamide(0.3, 1, 3 and 10 μmol/kg) or ranitidine (10 μmol/kg). Indomethacin 20 mg/kg, orally) was given 1 h after dosing. Stomach was removed 5 h after indomethacin and examined macroscopically Indomethacin induced ulcers in the corpus only, rumen and anthrum were unaffected. Ulcers in the corpus were classified as pinhead (diameter 3 mm or less) or furrows (>3 mm).

[1] = oral dose 0.3 μmol/kg 1 h before indomethacin 20 mg/kg orally
[2] = oral dose 1 μmol/kg 1 h before indomethacin 20 mg/kg orally
[3] = oral dose 3 μmol/kg 1 h before indomethacin 20 mg/kg orally
[4] = oral dose 10 μmol/kg 1 h before indomethacin 20 mg/kg orally
[5] = oral doses 0.3, 1, 3 and 10 μmol/kg

| Compound | Median number of gastric (corpus) ulcers induced by indomethacin: Ulcer furrows [1] | Median number of gastric (corpus) ulcers induced by indomethacin: Pinhead ulcers [1] | Median number of gastric (corpus) ulcers induced by indomethacin: Ulcer furrows [2] | Median number of gastric (corpus) ulcers induced by indomethacin: Pinhead ulcers [2] | Median number of gastric (corpus) ulcers induced by indomethacin: Ulcer furrows [3] | Median number of gastric (corpus) ulcers induced by indomethacin: Pinhead ulcers [3] | Median number of gastric (corpus) ulcers induced by indomethacin: Ulcer furrows [4] | Median number of gastric (corpus) ulcers induced by indomethacin: Pinhead ulcers [4] | Dose at which the decrease in pinhead ulcers and ulcer furrows was maximal [5] | Dose from which the decrease in pinhead ulcers and ulcer furrows was statistically significant [5] | Effect against gastric ulcers induced by indomethacin |
| --- | --- | --- | --- | --- | --- | --- | --- | --- | --- | --- | --- |
| CCc1cccc(C)c1CNc1cc(C(N)=O)cn2c(C)c(C)nc12 [2,3-dimethyl-8-(2-ethyl-6-methylbenzylamino)-imidazo[1,2-a]pyridine-6-carboxamide] | 8 | 5 | 9 | 5 | 1 | 2 | 0 | 0 | 10 µmol/kg | 3 µmol/kg | protective effect |
| CNC(=C[N+](=O)[O-])NCCSCc1ccc(CN(C)C)o1 [Ranitidine, ranitidine, reference compound] |  |  |  |  |  |  | 11 | 7 |  |  | no effect |
